How the values were obtained:
Assay in all cases: greenhouse post-emergence treatment, herbicidal activity
[1] = test system: AMBEL; assay type: in vivo, Ambrosia artemisiifolia
Experimental: (§1) The culture containers used were plastic pots containing loamy sand with approximately 2-3.0% of organic matter. The seeds of the test plants were sown separately for each species.
(§2) For the post-emergence treatment, the test plants were grown to a plant height of from 3 to 15 cm, depending on the plant habit, and only then treated with the active compounds which had been suspended or emulsified in water. To this end, the test plants were either sown directly, and grown in the same containers, or they were first grown separately as seedlings and transplanted into the test containers a few days prior to treatment.
(§3) Depending on the species, the plants were kept at 10-25° C. and 20-35° C., respectively. The test period extended over 2 to 4 weeks. During this time, the plants were tended and their response to the individual treatments was evaluated.
(§4) Evaluation was carried out using a scale from 0 to 100. 100 means no emergence of the plants, or complete destruction of at least the above-ground parts, and 0 means no damage or normal course of growth. A good herbicidal activity is given at values of at least 70, and very good herbicidal activity is given at values of at least 85.
(§5) In the examples below, using the method of S. R. Colby (1967) “Calculating synergistic and antagonistic responses of herbicide combinations”, Weeds 15, p. 22ff., the value E, which is expected if the activity of the individual active compounds is only additive, was calculated.
(§6) where X=percent activity using active compound A at an application rate a; Y=percent activity using active compound B at an application rate b; E=expected activity (in %) by A+B at application rates a+b.
(§7) where X=percent activity using active compound A at an application rate a; Y=percent activity using active compound B at an application rate b; Z=percent activity using active compound D at an application rate d; E=expected activity (in %) by A+B+D at application rates a+b+d.
(§8) If the value found experimentally is higher than the value E calculated according to Colby, a synergistic effect is present.
(§9) For preparation of the mixtures herbicides A were used in form of an aqueous solution comprising 22.5% by weight of the respective herbicide A. The herbicides B and D were used in form of the respective commercially available formulations as identified below. 1,5-dimethyl-6-thioxo-3-(2,2,7-trifluoro-3-oxo-4-(prop-2-ynyl)-3,4-dihydro-2H-benzo[b][1,4]oxazin-6-yl)-1,3,5-triazinane-2,4-dione (B.14) was used in form of 10% by weight suspension concentrate. If appropriate, the adjuvant DASH® HC was added to the mixtures.

[2] = test system: PANDI; assay type: in vivo, Panicum dichotomiflorun
Experimental: as §1, §2, §3, §4, §5, §6, §7, §8, §9

[3] = test system: ERBVI; assay type: in vivo, Eriochloa villosa; conditions: Example 4 (title: +1% by weight DASH® HC)
Experimental: as §1, §2, §3
(§10) Evaluation was carried out using a scale from 0 to 100. […]
(§11) In the examples below, using the method of S. R. Colby (1967) “Calculating synergistic and antagonistic responses of herbicide combinations”, Weeds 15, p. 22ff., the value E, which is expected if the activity of the individual active compounds is only additive, was calculated. […]
(§12) If the value found experimentally is higher than the value E calculated according to Colby, a synergistic effect is present. […]

[4] = test system: ABUTH; assay type: in vivo, Abutilon theophrasti
Experimental: as §1, §2, §3, §4, §5, §6, §7, §12

[5] = test system: HELAN; assay type: in vivo, Helianthus annuus
Experimental: as §1, §2, §3, §4, §5, §6, §7, §8, §9

[6] = test system: COMBE; assay type: in vivo, Commelina benghalensis
Experimental: as §1, §2, §3, §10, §11, §12

[7] = test system: ECHCG; assay type: in vivo, Echinochloa crus-galli
Experimental: as §1, §2, §3, §4, §5, §6, §7, §12

[8] = test system: CHEAL; assay type: in vivo, Chenopodium album
Experimental: as §1, §2, §3, §4, §5, §6, §7, §12

[9] = test system: DIGSA; assay type: in vivo, Digitaria sanguinales
Experimental: as §1, §2, §3, §4, §5, §6, §7, §8, §9

[10] = test system: POLPE; assay type: in vivo, Polygonum persicaria
Experimental: as §1, §2, §3, §4, §5, §6, §7, §8, §9

[11] = test system: BRADC; assay type: in vivo, Brachiaria decumbens
Experimental: as §1, §2, §3, §10, §11, §12

[12] = test system: ERICA; assay type: in vivo, Erigeron canadensis
Experimental: as §1, §2, §3, §4, §5, §6, §7, §8, §9

[13] = test system: CYPES; assay type: in vivo, Cyperus esculentus; conditions: Example 6 (title: +1% by weight DASH® HC)
Experimental: as §1, §2, §3, §10, §11, §12

[14] = test system: PHBPU; assay type: in vivo, Pharbitis purpurea
Experimental: as §1, §2, §3, §4, §5, §6, §7, §8, §9

[15] = test system: PHACA; assay type: in vivo, Phalaris canariensis L.; conditions: Example 10, 31.25 g/ha a.i.
Experimental: as §1, §2, §3, §10, §11, §12

[16] = test system: BRAPP; assay type: in vivo, Urochloa platyphylla; conditions: Example 10, 31.25 g/ha a.i.
Experimental: as §1, §2, §3, §10, §11, §12

[17] = Example 5 (title: +1% by weight DASH® HC), post-emergence, B.28 31.25 g/ha a.i.
[18] = Example 5 (title: +1% by weight DASH® HC); post-emergence; a1) 31.25 g/ha a.i.

CCOC(=O)C(Cl)Cc1cc(-n2nc(C)n(C(F)F)c2=O)c(F)cc1Cl (stereo not shown) [B.7, carfentrazone-ethyl]
herbicidal activity against AMBEL found ([1]; Example 11, post-emergence, 15 g/ha a.i.): 75%
herbicidal activity against AMBEL found ([1]; Example 12, post-emergence, B.7 68 g/ha a.i.): 70%

CC(C)N(C)S(=O)(=O)NC(=O)c1cc(-n2c(=O)cc(C(F)(F)F)n(C)c2=O)c(F)cc1Cl [B.12, saflufenacil]
herbicidal activity against PANDI found ([2]; Example 4 (title: +1% by weight DASH® HC), post-emergence, 6.25 g/ha a.i.): 95%
herbicidal activity against ERBVI found ([3]; 6.25 g/ha a.i.): 80%

Cc1c(C(=O)c2cnn(C)c2O)ccc(S(C)(=O)=O)c1C1=NOCC1 [B.25, topramezone]
herbicidal activity against ABUTH found ([4]; Example 9, 25 g/ha a.i.): 90%
herbicidal activity against HELAN found ([5]; Example 2, 12.5 g/ha a.i.): 80%
herbicidal activity against COMBE found ([6]; Example 2, 12.5 g/ha a.i.): 60%
herbicidal activity against ECHCG found ([7]; Example 9, 12.5 g/ha a.i.): 40%
herbicidal activity against CHEAL found ([8]; Example 9, 12.5 g/ha a.i.): 25%
herbicidal activity against DIGSA found ([9]; Example 2, 12.5 g/ha a.i.): 65%
herbicidal activity against DIGSA found ([9]; Example 9, 12.5 g/ha a.i.): 70%
herbicidal activity against POLPE found ([10]; Example 2, 12.5 g/ha a.i.): 75%

O=C(O)CNCP(=O)(O)O [B.26, glyphosate]
herbicidal activity against BRADC found ([11]; Example 1, 135 g/ha a.i.): 80%
herbicidal activity against AMBEL found ([1]; Example 12, post-emergence, B.26 15 g/ha a.i.): 75%
herbicidal activity against POLPE found ([10]; Example 1, 135 g/ha a.i.): 60%

CP(=O)(O)CCC(N)C(=O)O (stereo not shown) [B.27, glufosinate]
herbicidal activity against ERICA found ([12]; Example 8 (title: +1% by weight DASH® HC), 100 g/ha a.i.): 65%

Cc1ccc2c(c1)[C@H](Nc1nc(N)nc(C(C)F)n1)[C@@H](C)C2 (stereo partly shown) [B.28, indaziflam]
herbicidal activity against PANDI found [2, 17]: 80%
herbicidal activity against PANDI found ([2]; Example 6 (title: +1% by weight DASH® HC), post-emergence, 6.25 g/ha a.i.): 60%
herbicidal activity against CYPES found ([13]; 6.25 g/ha a.i.): 55%
herbicidal activity against PHBPU found [14, 17]: 98%
herbicidal activity against PHBPU found ([14]; Example 7 (title: +1% by weight DASH® HC), post-emergence, 75 g/ha a.i.): 65%
herbicidal activity against ERICA found ([12]; Example 7 (title: +1% by weight DASH® HC), 75 g/ha a.i.): 75%

COc1c(Cl)ccc(Cl)c1C(=O)O [B.32, dicamba]
herbicidal activity against HELAN found ([5]; Example 3, 60 g/ha a.i.): 80%
herbicidal activity against AMBEL found ([1]; Example 3, post-emergence, 60 g/ha a.i.): 85%
herbicidal activity against ERICA found ([12]; Example 3, 60 g/ha a.i.): 95%

CCNc1nc(Cl)nc(NC(C)C)n1 [D.3, atrazine]
herbicidal activity against ABUTH found ([4]; Example 9, 150 g/ha a.i.): 60%
herbicidal activity against ECHCG found ([7]; Example 9, 150 g/ha a.i.): 0%
herbicidal activity against CHEAL found ([8]; Example 9, 150 g/ha a.i.): 35%
herbicidal activity against DIGSA found ([9]; Example 9, 150 g/ha a.i.): 0%

C/C=C1/CC2=C(C(=O)OC2=O)[C@H](CCC)[C@H](O)C(=O)C[C@@H]1O [a1), cornexistin]
herbicidal activity against PANDI found ([2]; Example 4 (title: +1% by weight DASH® HC), post-emergence, 62.5 g/ha a.i.): 95%
herbicidal activity against PANDI found [2, 18]: 90%
herbicidal activity against PANDI found ([2]; Example 6 (title: +1% by weight DASH® HC), post-emergence, 62.5 g/ha a.i.): 95%
herbicidal activity against PHACA found [15]: 25%
herbicidal activity against ABUTH found ([4]; Example 9, 31.25 g/ha a.i.): 60%
herbicidal activity against HELAN found ([5]; Example 2, 125 g/ha a.i.): 20%
herbicidal activity against HELAN found ([5]; Example 3, 125 g/ha a.i.): 20%
herbicidal activity against BRAPP found [16]: 25%
herbicidal activity against BRADC found ([11]; Example 1, 125 g/ha a.i.): 50%
herbicidal activity against CYPES found ([13]; 62.5 g/ha a.i.): 0%
herbicidal activity against PHBPU found [14, 18]: 70%
herbicidal activity against PHBPU found ([14]; Example 7 (title: +1% by weight DASH® HC), post-emergence, 31.25 g/ha a.i.): 70%
herbicidal activity against AMBEL found ([1]; Example 3, post-emergence, 125 g/ha a.i.): 65%
herbicidal activity against AMBEL found ([1]; Example 11, post-emergence, 62.5 g/ha a.i.): 90%
herbicidal activity against AMBEL found ([1]; Example 12; post-emergence; a1) 15 g/ha a.i.): 35%
herbicidal activity against COMBE found ([6]; Example 2, 125 g/ha a.i.): 60%
herbicidal activity against ECHCG found ([7]; Example 9, 31.25 g/ha a.i.): 30%
herbicidal activity against ERBVI found ([3]; 62.5 g/ha a.i.): 90%
herbicidal activity against CHEAL found ([8]; Example 9, 31.25 g/ha a.i.): 0%
herbicidal activity against DIGSA found ([9]; Example 2, 125 g/ha a.i.): 90%
herbicidal activity against DIGSA found ([9]; Example 9, 31.25 g/ha a.i.): 25%
herbicidal activity against ERICA found ([12]; Example 3, 125 g/ha a.i.): 40%
herbicidal activity against ERICA found ([12]; Example 7 (title: +1% by weight DASH® HC), 31.25 g/ha a.i.): 40%
herbicidal activity against ERICA found ([12]; Example 8 (title: +1% by weight DASH® HC), 31.25 g/ha a.i.): 20%
herbicidal activity against POLPE found ([10]; Example 1, 125 g/ha a.i.): 60%
herbicidal activity against POLPE found ([10]; Example 2, 125 g/ha a.i.): 60%

— patent publication US20150342193A1, “Herbicidal Composition” (priority 2012, published 2015)
